From publication PMC6345968, “Structural basis for species-selective targeting of Hsp90 in a pathogenic fungus” (Nature Communications, 2019)
Like-named read-outs stand apart in the source and are kept apart here. One block for each compound: values may come before it.

How the values were obtained:
Hsp90 in HEPG2 lysate = details: for FP signal (raw) / FP signal / EC50: HepG2 lysate; for FP signal: raw; for EC50: oxime panel experiment 220817
[1] = target: T1, Hsp90 in C. albicans (SC5314) lysate (Candida albicans, UniProt P46598); test: biochemical; type: binding; details: for Ratio re. GdA: EC50 relative to GdA; for FP signal: raw
T1 construct: endogenous in cells; host or cells: C. albicans SC5314 whole-cell lysate
T1 sequence (P46598 whole entry): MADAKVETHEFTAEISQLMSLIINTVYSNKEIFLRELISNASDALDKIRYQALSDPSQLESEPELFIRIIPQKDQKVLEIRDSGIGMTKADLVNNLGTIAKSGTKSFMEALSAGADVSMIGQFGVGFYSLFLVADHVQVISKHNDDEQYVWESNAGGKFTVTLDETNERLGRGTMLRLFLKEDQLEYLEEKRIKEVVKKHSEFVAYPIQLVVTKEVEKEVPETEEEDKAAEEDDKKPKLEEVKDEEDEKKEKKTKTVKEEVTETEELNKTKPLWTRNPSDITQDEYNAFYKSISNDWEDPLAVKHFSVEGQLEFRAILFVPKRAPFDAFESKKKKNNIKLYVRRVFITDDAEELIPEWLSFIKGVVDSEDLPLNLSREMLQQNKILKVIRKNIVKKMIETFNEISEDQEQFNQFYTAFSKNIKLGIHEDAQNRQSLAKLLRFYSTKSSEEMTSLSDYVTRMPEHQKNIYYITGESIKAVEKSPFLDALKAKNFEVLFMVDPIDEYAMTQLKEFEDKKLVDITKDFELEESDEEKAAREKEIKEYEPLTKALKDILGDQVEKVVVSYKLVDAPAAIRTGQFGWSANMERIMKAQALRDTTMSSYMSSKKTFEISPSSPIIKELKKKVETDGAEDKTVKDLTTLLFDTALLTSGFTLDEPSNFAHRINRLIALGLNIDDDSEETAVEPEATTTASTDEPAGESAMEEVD

[2] = EC50 / EC50 of GdA in HepG2 lysate
[3] = EC50 relative to GdA, HEPG2 lysate
[4] = HEPG2 lysate, log concentration 0.137354 (1.372 nM)
[5] = HEPG2 lysate, log concentration 0.61437 (4.115 nM)
[6] = HEPG2 lysate, log concentration 1.09153 (12.346 nM)
[7] = HEPG2 lysate, log concentration 1.56864 (37.037 nM)
[8] = HEPG2 lysate, log concentration 2.04576 (111.111 nM)
[9] = HEPG2 lysate, log concentration 2.52288 (333.333 nM)
[10] = HEPG2 lysate, log concentration 3 (1000 nM)
[11] = HEPG2 lysate, log concentration 3.47712 (3000 nM)
[12] = HEPG2 lysate, log concentration -0.340084 (0.457 nM)
[13] = SC5314 lysate, 0.457 nM compound
[14] = SC5314 lysate, 1.372 nM compound
[15] = SC5314 lysate, 4.115 nM compound
[16] = SC5314 lysate, 12.346 nM compound
[17] = SC5314 lysate, 37.037 nM compound
[18] = SC5314 lysate, 111.111 nM compound
[19] = SC5314 lysate, 333.333 nM compound
[20] = SC5314 lysate, 1000 nM compound
[21] = SC5314 lysate, 3000 nM compound
[22] = ratio of GdA-normalized EC50s, human over fungal lysate
[23] = ratio of GdA-relative EC50 ratios, HepG2 over SC5314

EC50 (Hsp90 in HEPG2 lysate): 353 nM | Ratio re. GdA ([1]; SC5314 lysate): 23.0159 | FP signal (raw) ([1]; SC5314 lysate, 0.457 nM): 197 | FP signal relative to 0 nM [1, 13]: 0.9426 | FP signal [1, 13]: 197 | FP signal (raw) ([1]; SC5314 lysate, 1.372 nM): 194 | FP signal relative to 0 nM [1, 14]: 0.9282 | FP signal [1, 14]: 194 | FP signal (raw) ([1]; SC5314 lysate, 4.115 nM): 198 | FP signal relative to 0 nM [1, 15]: 0.9474 | FP signal [1, 15]: 198 | FP signal (raw) ([1]; SC5314 lysate, 12.346 nM): 197 | FP signal relative to 0 nM [1, 16]: 0.9426 | FP signal [1, 16]: 197 | FP signal (raw) ([1]; SC5314 lysate, 37.037 nM): 192 | FP signal relative to 0 nM [1, 17]: 0.9187 | FP signal [1, 17]: 192 | FP signal (raw) ([1]; SC5314 lysate, 111.111 nM): 183 | FP signal relative to 0 nM [1, 18]: 0.8756 | FP signal [1, 18]: 183 | FP signal (raw) ([1]; SC5314 lysate, 333.333 nM): 134 | FP signal relative to 0 nM [1, 19]: 0.6411 | FP signal [1, 19]: 134 | FP signal (raw) ([1]; SC5314 lysate, 1000 nM): 42 | FP signal relative to 0 nM [1, 20]: 0.201 | FP signal [1, 20]: 42 | FP signal (raw) ([1]; SC5314 lysate, 3000 nM): 38 | FP signal relative to 0 nM [1, 21]: 0.1818 | FP signal [1, 21]: 38 | EC50 ([1]; SC5314 lysate, not normalized, oxime panel experiment 220817, read-out: EC50): 392 nM | HepG2/SC5314 [1, 22]: 0.6913 | HepG2/SC5314 [1, 23]: 0.6913
Structure (SMILES): CC1CC2OC2C=CC=CC(=NOCc2ccccc2)Cc2c(Cl)c(O)cc(O)c2C(=O)O1 (mixture of isomers) [compound 217]
Ratio rel. GdA (HepG2) (Hsp90 in HEPG2 lysate; [2]): 15.9107 | Ratio rel. GdA (HepG2) (Hsp90 in HEPG2 lysate; [3]): 15.9107 | FP signal, Fxn Control (Hsp90 in HEPG2 lysate; [4]): 0.9806 | FP signal, Fxn Control (Hsp90 in HEPG2 lysate; [5]): 0.9951 | FP signal, Fxn Control (Hsp90 in HEPG2 lysate; [6]): 0.9951 | FP signal, Fxn Control (Hsp90 in HEPG2 lysate; [7]): 0.9612 | FP signal, Fxn Control (Hsp90 in HEPG2 lysate; [8]): 0.8592 | FP signal, Fxn Control (Hsp90 in HEPG2 lysate; [9]): 0.6117 | FP signal, Fxn Control (Hsp90 in HEPG2 lysate; [10]): 0.2524 | FP signal, Fxn Control (Hsp90 in HEPG2 lysate; [11]): 0.1893 | FP signal, Fxn Control (Hsp90 in HEPG2 lysate; [12]): 1.005 | FP signal (raw) (Hsp90 in HEPG2 lysate; 0.457 nM): 207 | FP signal (Hsp90 in HEPG2 lysate; 0.457 nM compound): 207 | FP signal (raw) (Hsp90 in HEPG2 lysate; 1.372 nM): 202 | FP signal (Hsp90 in HEPG2 lysate; 1.372 nM compound): 202 | FP signal (raw) (Hsp90 in HEPG2 lysate; 4.115 nM): 205 | FP signal (Hsp90 in HEPG2 lysate; 4.115 nM compound): 205 | FP signal (raw) (Hsp90 in HEPG2 lysate; 12.346 nM): 205 | FP signal (Hsp90 in HEPG2 lysate; 12.346 nM compound): 205 | FP signal (raw) (Hsp90 in HEPG2 lysate; 37.037 nM): 198 | FP signal (Hsp90 in HEPG2 lysate; 37.037 nM compound): 198 | FP signal (raw) (Hsp90 in HEPG2 lysate; 111.111 nM): 177 | FP signal (Hsp90 in HEPG2 lysate; 111.111 nM compound): 177 | FP signal (raw) (Hsp90 in HEPG2 lysate; 333.333 nM): 126 | FP signal (Hsp90 in HEPG2 lysate; 333.333 nM compound): 126 | FP signal (raw) (Hsp90 in HEPG2 lysate; 1000 nM): 52 | FP signal (Hsp90 in HEPG2 lysate; 1000 nM compound): 52 | FP signal (raw) (Hsp90 in HEPG2 lysate; 3000 nM): 39 | FP signal (Hsp90 in HEPG2 lysate; 3000 nM compound): 39

EC50 (Hsp90 in HEPG2 lysate): 2500 nM | Ratio re. GdA ([1]; SC5314 lysate): 57.1252 | FP signal (raw) ([1]; SC5314 lysate, 0.457 nM): 202 | FP signal relative to 0 nM [1, 13]: 0.9806 | FP signal [1, 13]: 202 | FP signal (raw) ([1]; SC5314 lysate, 1.372 nM): 199 | FP signal relative to 0 nM [1, 14]: 0.966 | FP signal [1, 14]: 199 | FP signal (raw) ([1]; SC5314 lysate, 4.115 nM): 200 | FP signal relative to 0 nM [1, 15]: 0.9709 | FP signal [1, 15]: 200 | FP signal (raw) ([1]; SC5314 lysate, 12.346 nM): 199 | FP signal relative to 0 nM [1, 16]: 0.966 | FP signal [1, 16]: 199 | FP signal (raw) ([1]; SC5314 lysate, 37.037 nM): 200 | FP signal relative to 0 nM [1, 17]: 0.9709 | FP signal [1, 17]: 200 | FP signal (raw) ([1]; SC5314 lysate, 111.111 nM): 197 | FP signal relative to 0 nM [1, 18]: 0.9563 | FP signal [1, 18]: 197 | FP signal (raw) ([1]; SC5314 lysate, 333.333 nM): 171 | FP signal relative to 0 nM [1, 19]: 0.8301 | FP signal [1, 19]: 171 | FP signal (raw) ([1]; SC5314 lysate, 1000 nM): 108 | FP signal relative to 0 nM [1, 20]: 0.5243 | FP signal [1, 20]: 108 | FP signal (raw) ([1]; SC5314 lysate, 3000 nM): 45 | FP signal relative to 0 nM [1, 21]: 0.2184 | FP signal [1, 21]: 45 | HepG2/SC5314 [1, 22]: 1.973 | HepG2/SC5314 [1, 23]: 1.973
Structure (SMILES): Cc1ccc(CON=C2C=CC=CC3OC3CC(C)OC(=O)c3c(O)cc(O)c(Cl)c3C2)cc1 (mixture of isomers) [compound 218]
Ratio rel. GdA (HepG2) (Hsp90 in HEPG2 lysate; [2]): 112.714 | Ratio rel. GdA (HepG2) (Hsp90 in HEPG2 lysate; [3]): 112.714 | FP signal, Fxn Control (Hsp90 in HEPG2 lysate; [4]): 0.9811 | FP signal, Fxn Control (Hsp90 in HEPG2 lysate; [5]): 0.9953 | FP signal, Fxn Control (Hsp90 in HEPG2 lysate; [6]): 0.9858 | FP signal, Fxn Control (Hsp90 in HEPG2 lysate; [7]): 0.9906 | FP signal, Fxn Control (Hsp90 in HEPG2 lysate; [8]): 0.9811 | FP signal, Fxn Control (Hsp90 in HEPG2 lysate; [9]): 0.9575 | FP signal, Fxn Control (Hsp90 in HEPG2 lysate; [10]): 0.8066 | FP signal, Fxn Control (Hsp90 in HEPG2 lysate; [11]): 0.4009 | FP signal, Fxn Control (Hsp90 in HEPG2 lysate; [12]): 0.9906 | FP signal (raw) (Hsp90 in HEPG2 lysate; 0.457 nM): 210 | FP signal (Hsp90 in HEPG2 lysate; 0.457 nM compound): 210 | FP signal (raw) (Hsp90 in HEPG2 lysate; 1.372 nM): 208 | FP signal (Hsp90 in HEPG2 lysate; 1.372 nM compound): 208 | FP signal (raw) (Hsp90 in HEPG2 lysate; 4.115 nM): 211 | FP signal (Hsp90 in HEPG2 lysate; 4.115 nM compound): 211 | FP signal (raw) (Hsp90 in HEPG2 lysate; 12.346 nM): 209 | FP signal (Hsp90 in HEPG2 lysate; 12.346 nM compound): 209 | FP signal (raw) (Hsp90 in HEPG2 lysate; 37.037 nM): 210 | FP signal (Hsp90 in HEPG2 lysate; 37.037 nM compound): 210 | FP signal (raw) (Hsp90 in HEPG2 lysate; 111.111 nM): 208 | FP signal (Hsp90 in HEPG2 lysate; 111.111 nM compound): 208 | FP signal (raw) (Hsp90 in HEPG2 lysate; 333.333 nM): 203 | FP signal (Hsp90 in HEPG2 lysate; 333.333 nM compound): 203 | FP signal (raw) (Hsp90 in HEPG2 lysate; 1000 nM): 171 | FP signal (Hsp90 in HEPG2 lysate; 1000 nM compound): 171 | FP signal (raw) (Hsp90 in HEPG2 lysate; 3000 nM): 85 | FP signal (Hsp90 in HEPG2 lysate; 3000 nM compound): 85
